Key:
wound in rat = test: Healing effect on wound in rat; type: in vivo, SD rats; conditions: for Healing days / Healing Index: 15 days; for effect on healing days and Healing Index (in words): TABLES 7 and 8
Experimental: Healing Effect on wound in rat
Male 7-week SD rats were classified into groups each consisting of 6-7 rats, such that all the groups have substantially the same average weight. The experiment was performed on the rats according to a method of Tsurumi et al. (Oyo Yakuri, Vol. 7, pp833, 1973). Initially, the rats were subjected to an anesthesia with pentobarbital. The hair of the back of each rat was clipped, and the skin was disinfected with 70% ethanol. Then, the skin was lightly pulled and punched off in a direction from the right to the left by means of a punch whose diameter is 10 mm, so as to form two open wounds on portions of the back of the rat which are symmetrical to each other with respect to the center line of the back. The compounds of Examples indicated in the following TABLES 7 and 8 were used as specimen drugs, and orally administered once a day to each of the rats with doses indicated in the TABLES 7 and 8. The oral administration continued for 15 consecutive days, beginning from the first day when the wounds were formed on the back of each rat.
To clarify the healing effect on the wounds, an Healing Index and healing days were obtained in the following manner. Initially, the lengths of a major axis and a minor axis of each wound formed on the back were measured using calipers. On the basis of the measured length values, the area of each wound was calculated as the area of an ellipse. The Healing Index was obtained according to a method of Nakano et al. (Oyo Yakuri, Vol. 47, pp29, 1994). Described more specifically, a ratio of area of each wound was chronologically represented in a graph, and an area of the lower part of a curve in the graph during a period from the fifth day to the fifteenth day after the wounds were formed was obtained as the Healing Index. […] The healing days were obtained as the number of the days that were required for the wounds to be completely covered with regenerated epidermises. As for the wound that was healed in more than 15 days, the healing days were obtained as 16 days.

bFGF = test: Production amount of bFGF in RGM1 culture supernatant (ELISA); type: cell-based, Wistar rat; conditions: not stated which
Experimental: Effect of imidazoline derivatives on the additional expression of bFGF
Initially, RGM1 cells which are derived from a gastric mucosa epithelial cell of a Wistar rat were seeded into 24 well plates (2×10^4 cells/dish, 1 mL/well), and cultured for 24 hours. As the imidazoline derivative according to the present invention, the compound obtained in Example 14 was used. The compound was applied to the cells in final concentrations of 3 μM, 10 μM and 30 μM. After 24 hours, the culture supernatants which correspond to the respective concentration values were collected, and analyzed using bFGF ELISA kit. Similarly, the culture supernatants were collected 48 hours after the application of the compound. Described more specifically, 50 μL of each culture supernatant was applied to a 96 well microplate coated with bFGF monoclonal antibody. The plate was incubated for a predetermined time so that the bFGF contained in each culture supernatant was bonded to the bFGF monoclonal antibody. Thereafter, each supernatant was reacted with horseradish peroxidase conjugated antibody which is able to recognize another epitope of the bFGF, so as to form, on the 96 well microplate, a sandwich type composite body consisting of immobilized antibody (bFGF monoclonal antibody), antigen (bFGF), and HRP linked antibody. Subsequently, HRP linked antibody of the composite body was colored using o-phenylenediamine and H2 O2. The reaction was terminated by using sulfuric acid after a predetermined time has elapsed. Then, the absorbance of reactant at 490 nm was measured using a micro-platereader. The production amount of the bFGF was obtained for each culture supernatant, on the basis of the measured absorbance values, according to a standard curve prepared for a standard bFGF of a human body.

bFGF mRNA = test: Effect on additional expression of bFGF mRNA in RGM1 cells (RT-PCR, band intensity); type: cell-based, rat; set-up: key: ++: the expression of the bFGF mRNA in the imidazoline-treated cells was considerably increased; +: the expression of the bFGF mRNA was increased to some extent; conditions: 48 hours, vs cells without the derivative
Description: Effect of imidazoline derivatives on the additional expression of the bFGF
There will be next explained an effect of the imidazoline derivatives in vitro.
Initially, there will be explained an effect of the imidazoline derivative on the additional expression of bFGF in the cells cultured. The reverse transcription-polymerase chain reaction (PCR) was used to explain the effects of imidazoline derivatives on the additional expression of bFGF, and then the PCR products were subjected to electrophoresis to confirm a bFGF band.
An established rat gastric mucosal epithelial cell line RGM1 was seeded in petri dishes (1×10^6 cells/dish), in the presence of D-MEM/Ham 12 (1:1) mixed medium containing 20% fetal calf serum. After 24 hours, the imidazoline derivatives as the specimen drugs according to the present invention were applied in the culture medium, and the cells were cultured for 48 hours. The compounds prepared in Examples 1 and 14 were used as the specimen drugs. Cultures were then supplemented with the compounds in final concentrations (10 μM and 100 μM for the compound of Example 1, and 3 μM, 10 μM and 100 μM for the compound of Example 14).
From the cultured cells of each sample subjected to the above-described processing by the specimen drugs, total cellular RNA was extracted according to Acid Guanidinium Thiocyanate-Phenol-Chloroform method (AGPC). Described more specifically, after cultivation with the above compounds in the culture medium, the culture supernatant was completely removed by suction. To the cells of each sample left in the petri dish, 500 μL of Solution D (consisting of: 4M of guanidinethiocyanate; 25 mM of sodium citrate; 0.5% sarkosyl solution, 0.1M of 2-mercaptoethanol) was added, and the cells were scraped with rubber policeman (available from SUMITOMO BAKELITE CO., LTD.). The thus obtained cell suspension was transfered into a micro centrifuge tube, and there were successively added 50 μL of 2M sodium acetate (pH 4.0), 500 μL of water-saturated phenol and 100 μL of chloroform-isoamyl alcohol (49:1). The suspension was mixed each time the above-described substances were added. The suspension was placed on ice for 15 minutes after it was intensely shaken for 1 minute. Then, the suspension was centrifuged at 10000 rpm for 20 minutes at 4° C. The aqueous layer (upper layer) was transfered into another micro centrifuge tube, and was intimately mixed with an equivalent amount of isopropanol. After the mixture was kept at -20° C. for one hour, it was centrifuged at 10000 rpm for 20 minutes at 4° C. After the centrifugation, the upper layer was discarded, and a precipitate of mRNA was completely dissolved in 200 μL of Solution D. The thus obtained solution was mixed again with an equivalent amount of isopropanol and the mixture was kept at -20° C. for one hour. The mixture was then subjected to centrifugation for 20 minutes at 4° C. and 10000 rpm. After the centrifugation, the supernatant was discarded, and the precipitate was centrifuged at 10000 rpm for 10 minutes at 4° C. The supernatant was discarded, while the precipitate was dried in vacuo for 5 minutes. The total RNA was dissolved in 50 μL of distilled water processed by diethyl pyrocarbonate (DEPC). The concentration of total RNA was measured on the basis of its absorbance at 260 nm by ultraviolet spectrum.
The CDNA synthesis was performed by means of Reverse Transcriptase using the above obtained total RNA as a template. As a primer, a random primer was employed. […]

[1] = system: water-immersion restraint stress-induced gastric ulcer; test: Inhibitory effect on water-immersion restraint stress-induced gastric ulcer; type: in vivo, SD rats; conditions: 10 mg/kg oral, 30 min before stress
Experimental: Inhibitory effect on water-immersion restraint stress-induced gastric ulcer
Male 7-week SD rats were fasted for 24 hours, with a fast of water beginning in early morning of the day when the experiments were performed. The rats were classified into groups each consisting of five rats, such that all the groups have substantially the same average weight. Thirty minutes before giving a stress to the rats, the compounds of the Examples indicated in TABLE 3 were orally administered as specimen drugs to the rats, with a dose of 10 mg/kg. The rats were then kept in stress cages, and were given a stress by immersing the cages in a water bath kept at a substantially constant temperature of 23°±1° C., such that the water level was at the height of the xiphoid of the rats. Seven hours later, the specimen rats were sacrificed by ether, and the gastric mucosa of each rat was semi-fixed with 2% formaline. The longitudinal length of the damaged area of the gastric mucosa was measured. A sum of the measured length values of the rats of each group was calculated as an ulcer index. An anti-ulcer or ulcer inhibitory percent (%) was calculated as {1-(ulcer index of each group of specimen rats)/(ulcer index of non-specimen group)}×100.

[2] = system: gastric acid secretion in a pylorus ligated rat; test: Inhibitory effect on the gastric acid secretion in a pylorus ligated rat; type: in vivo, SD rats; conditions: 4 hours
Experimental: Inhibitory effect on the gastric acid secretion in a pylorus ligated rat Male 7-week SD rats were fasted for 24 hours, with a fast of water beginning in early morning of the day when the experiments were performed. The rats were classified into groups each consisting of five rats, such that all the groups have substantially the same average weight. The experiments were performed according to a method of Shay et. al. (Shay, H. et. al., Gastroenterology, Vol. 5, pp43, 1945). Described more specifically, each of the rats was subjected to a light anesthesia by ether, and the hair of the abdomen of each rat was clipped. Then, the abdomen was incised over a length of 1.5 cm along the center line downwards from a portion 1 cm below the xiphoid of the rat, and the stomach was taken out of the body. A portion connecting the pylorus and the duodenum was ligated by suturing thread. […] After the administration, the skin of the abdominal muscle and abdomen was sutured. The rats were kept in cages and fasted for 4 hours with a fast of water. Then, the rats were sacrificed by ether, and the stomach of each rat was removed. The gastric content was obtained from a small hole formed through the stomach of each rat and was collected in a test tube. […] An amount of supernatant was measured as a volume of gastric acid, and a total acidity of the gastric acid was also measured. A volume of gastric acid inhibitory percent (%) and a total acidity inhibitory percent (%) were calculated in the same manner as the ulcer inhibitory percent was calculated. The total acidity was obtained as a product of the amount of gastric acid secreted for 4 hours and the acidity per 1 mL of the gastric acid which was subjected to neutralization titration by an aqueous solution of 0.01N sodium hydroxide.

SMILES: CC(C)CN(C)c1ccccc1C[S+]([O-])C1=NC(C)(C)C(=S)N1 (centres unmarked) [Example 14, 2-(2-N-isobutyl-N-methylaminobenzylsulfinyl)-5,5-dimethylimidazolin-4-thione]
- Healing days (wound in rat; TABLE 8, 50 mg/kg oral once a day, control 14.3 ± 0.37): 13.5 ± 0.42 days
- Healing Index (wound in rat; TABLE 8, 50 mg/kg oral once a day, control 152.0 ± 9.5): 116.5 ± 7.0
- Healing days (wound in rat; TABLE 8, 100 mg/kg oral once a day, control 14.3 ± 0.37): 13.6 ± 0.44 days
- Healing Index (wound in rat; TABLE 8, 100 mg/kg oral once a day, control 152.0 ± 9.5): 126.5 ± 8.3
- effect on healing days and Healing Index (in words) (wound in rat): effective to reduce the healing days and lower the Healing Index
- Production amount of bFGF (bFGF; concentration of drug 3, 24 or 48 hours): 15 pg/mL
- Production amount of bFGF (bFGF; concentration of drug 10, 24 or 48 hours): 29 pg/mL
- Production amount of bFGF (bFGF; concentration of drug 30, 24 or 48 hours): 36 pg/mL
- Band Intensity (bFGF mRNA; 3 μM): ++
- Band Intensity (bFGF mRNA; 10 μM): ++
- Band Intensity (bFGF mRNA; 100 μM): ++

SMILES: CC1(C)N=C([S+]([O-])Cc2ccccc2NCC(F)(F)F)NC1=S (centres unmarked) [Example 12, 2-[2-N-(2,2,2-trifluoroethyl)aminobenzylsulfinyl]-5,5-dimethylimidazolin-4-thione]
- Inhibitory Percent (ulcer) [1]: 46.6%

SMILES: CN/C(=N/CCSCc1nc[nH]c1C)NC#N [cimetidine]
- Total acidity Inhibitory percent ([2]; 10 mg/kg intraduodenal): 27.7%
- Volume of Gastric acid Inhibitory percent ([2]; 10 mg/kg intraduodenal): 22.7%
- Total acidity Inhibitory percent ([2]; 30 mg/kg intraduodenal): 51.8%
- Volume of Gastric acid Inhibitory percent ([2]; 30 mg/kg intraduodenal): 31.2%
- Total acidity Inhibitory percent ([2]; 100 mg/kg intraduodenal): 76.1%
- Volume of Gastric acid Inhibitory percent ([2]; 100 mg/kg intraduodenal): 52.8%

SMILES: CCC1(CC)N=C([S+]([O-])Cc2ccccc2N(C)C)NC1=S (centres unmarked) [Example 7, 2-(2-dimethylaminobenzylsulfinyl)-5,5-diethylimidazolin-4-thione]
- Inhibitory Percent (ulcer) [1]: 53.9%

SMILES: CC1(C)N=C([S+]([O-])Cc2ccccc2NC(=O)C(F)(F)F)NC1=S (centres unmarked) [Example 1, 2-(2-N-trifluoroacetylaminobenzylsulfinyl)-5,5-dimethylimidazolin-4-thione]
- Healing days (wound in rat; TABLE 7, 50 mg/kg oral once a day, control 15.1 ± 0.22): 14.4 ± 0.38 days
- Healing Index (wound in rat; TABLE 7, 50 mg/kg oral once a day, control 188.3 ± 18.2): 183.2 ± 11.2
- Healing days (wound in rat; TABLE 7, 100 mg/kg oral once a day, control 15.1 ± 0.22): 14.2 ± 0.37 days
- Healing Index (wound in rat; TABLE 7, 100 mg/kg oral once a day, control 188.3 ± 18.2): 157.5 ± 18.9
- effect on healing days and Healing Index (in words) (wound in rat): effective to reduce the healing days and lower the Healing Index
- Band Intensity (bFGF mRNA; 10 μM): +
- Band Intensity (bFGF mRNA; 100 μM): +

From patent publication US5750552A, “Imidazoline derivative, possible tautomer thereof, and vulnerary including such derivative or tautomer” (Arax Co., Ltd., priority 1995, dated 1998)
